Measured values published in patent US11230717B2, “Plants having increased tolerance to herbicides” (BASF SE, priority 2013, dated 2022).

Tests used:
transgenic Corn plants = experiment: Greenhouse testing of transgenic Corn plants (homozygous T2), herbicide spray test; type: in vivo, Zea mays
Experimental: (§1) Transgenic plants expressing heterologous HPPD or HST enzymes are tested for tolerance against HPPD-inhibiting herbicides in greenhouse experiments.
(§2) For post emergence treatment, the test plants are first grown to a height of 3 to 15 cm, depending on the plant habit, and only then treated with the herbicides. For this purpose, the test plants are either sown directly and grown in the same containers, or they are first grown separately and transplanted into the test containers a few days prior to treatment. For testing of T0 plants, cuttings can be used. In the case of soybean plants, an optimal shoot for cutting is about 7.5 to 10 cm tall, with at least two nodes present. Each cutting is taken from the original transformant (mother plant) and dipped into rooting hormone powder (indole-3-butyric acid, IBA). The cutting is then placed in oasis wedges inside a bio-dome. Wild type cuttings are also taken simultaneously to serve as controls. The cuttings are kept in the bio-dome for 5-7 days and then transplanted to pots and then acclimated in the growth chamber for two more days. Subsequently, the cuttings are transferred to the greenhouse, acclimated for approximately 4 days, and then subjected to spray tests as indicated.
(§3) Depending on the species, the plants are kept at 10-25° C. or 20-35° C. The test period ex-tends over 3 weeks. During this time, the plants are tended and their response to the individual treatments is evaluated. Herbicide injury evaluations are taken at 2 and 3 weeks after treatment. Plant injury is rated on a scale of 0 to 9, 0 being no injury and 9 being complete death.
Transgenic corn plants were sprayed with doses from 62.5-250 g/ha with the benzamide-derivative HPPD-inhibiting herbicide and injury evaluations were taken two weeks after treatment. […] As depicted in Table 19, control plants were severely injured by all doses of herbicide applied, with 86% of leaf material being damaged at the highest rate applied. […] Application of 250 g/ha active ingredient resulted only in 10% leaf damage (event 1) in transgenic plants which gave in direct comparison with wild-type plants (injury value is 86%) an 8-fold increased tolerance at this application rate. In addition, transgenic corn plants comprising a transgene encoding the mutated version of Arabidopsis HPPD with methionine 335 exchanged to histidine, are tolerant for the benzamide-derivative inhibitor tested in the present invention.

transgenic Soy plants [1] = experiment: Greenhouse testing of transgenic Soy plants (T2), herbicide spray test; type: in vivo, Glycine max
Experimental: as §1, §2, §3
As depicted in Table 20, control plants were severely injured by all doses of herbicide applied, with 79% of leaf material being damaged at the highest application rate. […] Application of 31,25 g/ha active ingredient resulted only in 10-13% of leaf damage in two independent transgenic plant lines. Thus, in direct comparison with wild-type plants (injury value is 49%), a 4-fold increased tolerance could be observed after spraying with 31,25 g/ha. […]

transgenic Soy plants [2] = experiment: as above; type: in vivo, Glycine max; remark: listed apart in the source
[3] = molecular target: T1, Arabidopsis HPPD variant F381I (Arabidopsis thaliana, UniProt P93836, F381I); experiment: HPPD activity assay, in vitro characterization of HPPD mutants; type: biochemical; conditions: normalized to wildtype
T1 construct: His6 (N); made in house; host or cells: E. coli BL21 (DE3)
Experimental: HPPD produces homogentisic acid and CO2 from 4-hydroxyphenylpyruvate (4-HPP) and O2. The activity assay for HPPD is based on the analysis of homogentisic acid by reversed phase HPLC.
The assay mixture can contain 150 mM potassium phosphate buffer pH 7.0, 50 mM L-ascorbic acid, 100 μM Catalase (Sigma-Aldrich), 1 μM FeSO4 and 0.2 units of purified HPPD enzyme in a total volume of 505 μl. 1 unit is defined as the amount of enzyme that is required to produce 1 nmol of HGA per minute at 20° C.
After a preincubation of 30 min the reaction is started by adding 4-HPP to a final concentration of 0.05 mM. The reaction is allowed to proceed for 45 min at room temperature. The reaction is stopped by the addition of 50 μl of 4.5 M phosphoric acid. The sample is filtered using a […] pore size PVDF filtration device.
5 μl of the cleared sample is analyzed on an UPLC HSS T3 column (particle size 1.8 μm, dimensions 2,1×50 mm; Waters) by isocratic elution using 90% 20 mM NaH2PO4 pH 2.2, 10% methanol (v/v).
HGA is detected electrochemically at 750 mV (mode: DC; polarity: positive) and quantified by integrating peak areas (Empower software; Waters).
Inhibitors are dissolved in DMSO (dimethylsulfoxide) to a concentration of 0.5 mM. From this stock solution serial five-fold dilutions are prepared in DMSO, which are used in the assay. The respective inhibitor solution accounts for 1% of the assay volume. […] Activities are normalized by setting the uninhibited enzyme activity to 100%. IC50 values are calculated using non-linear regression.
Purified, mutant HPPD enzymes are obtained by the methods described above. Dose response and kinetic measurements are carried out using the described HPPD activity assay. Apparent michaelis constants (Km) and maximal reaction velocities (Vmax) are calculated by non-linear regression with the software GraphPad Prism 5 (GraphPad Software, La Jolla, USA) using a substrate inhibition model. […] Weighted means (by standard error) of Km and IC50 values are calculated from at least three independent experiments.
Field performance of the optimized HPPD enzyme, which is used as a herbicide tolerance trait may depend not only on its lack of sensitivity towards HPPD inhibiting herbicides but also on its activity. To assess the potential performance of a herbicide tolerance trait a tolerance index (TI) is calculated using the following formula: […]

T1 sequence (P93836 whole entry F381I): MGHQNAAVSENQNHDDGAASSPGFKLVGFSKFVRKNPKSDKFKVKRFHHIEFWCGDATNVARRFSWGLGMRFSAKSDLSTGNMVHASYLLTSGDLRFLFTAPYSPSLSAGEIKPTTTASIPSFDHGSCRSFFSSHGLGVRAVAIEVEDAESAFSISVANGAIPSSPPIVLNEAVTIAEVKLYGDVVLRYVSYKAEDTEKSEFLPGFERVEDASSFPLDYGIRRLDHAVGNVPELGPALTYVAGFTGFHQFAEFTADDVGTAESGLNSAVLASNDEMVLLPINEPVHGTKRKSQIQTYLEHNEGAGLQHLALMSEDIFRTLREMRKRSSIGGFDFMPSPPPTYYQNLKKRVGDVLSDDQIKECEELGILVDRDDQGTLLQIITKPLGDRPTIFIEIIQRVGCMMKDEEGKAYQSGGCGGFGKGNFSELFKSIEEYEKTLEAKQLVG

## CSc1c(Cl)cc(F)c(C(=O)Nc2ncnn2C)c1Cl [Inhibitor 3, 2,4-dichloro-6-fluoro-3-methylsulfanyl-N-(2-methyl-1,2,4-triazol-3-yl)benzamide]
Transgenic Corn plants; Corn AtL385V, I393L Event 1, 62.5 g/ha, two weeks
  Injury evaluation, scale 0-100%: 3%
Transgenic Corn plants; Corn AtL385V, I393L Event 1, 125 g/ha, two weeks
  Injury evaluation, scale 0-100%: 7%
Transgenic Corn plants; Corn AtL385V, I393L Event 1, 250 g/ha, two weeks
  Injury evaluation, scale 0-100%: 10%
Transgenic Corn plants; Corn AtL385V, I393L Event 2, 62.5 g/ha, two weeks
  Injury evaluation, scale 0-100%: 6%
Transgenic Corn plants; Corn AtL385V, I393L Event 2, 125 g/ha, two weeks
  Injury evaluation, scale 0-100%: 10%
Transgenic Corn plants; Corn AtL385V, I393L Event 2, 250 g/ha, two weeks
  Injury evaluation, scale 0-100%: 47%
Transgenic Corn plants; Corn AtM335H, 62.5 g/ha, two weeks
  Injury evaluation, scale 0-100%: 3%
Transgenic Corn plants; Corn AtM335H, 125 g/ha, two weeks
  Injury evaluation, scale 0-100%: 4%
Transgenic Corn plants; Corn AtM335H, 250 g/ha, two weeks
  Injury evaluation, scale 0-100%: 6%
Transgenic Corn plants; Corn WT, 62.5 g/ha, two weeks after treatment
  Injury evaluation, scale 0-100%: 40%
Transgenic Corn plants; Corn WT, 125 g/ha, two weeks after treatment
  Injury evaluation, scale 0-100%: 63%
Transgenic Corn plants; Corn WT, 250 g/ha, two weeks after treatment
  Injury evaluation, scale 0-100%: 86%
Transgenic Soy plants [1]; Soy Arabidopsis HPPD (SEQ ID: 53), 31,25 g/ha
  increased tolerance vs wild-type plants: 4 fold
Transgenic Soy plants [1]; Soy Arabidopsis HPPD, two independent transgenic plant lines, 31,25 g/ha
  leaf damage: 10-13%
Transgenic Soy plants [1]; Soy expressing Glycine max HPPD
  tolerance compared to nontransgenic control plants: more tolerant
Transgenic Soy plants [2]; Soy AtHPPD Event 1, 31.25 g/ha, two weeks
  Injury evaluation, scale 0-100%: 10%
Transgenic Soy plants [2]; Soy AtHPPD Event 1, 62.5 g/ha, two weeks
  Injury evaluation, scale 0-100%: 16%
Transgenic Soy plants [2]; Soy AtHPPD Event 1, 125 g/ha, two weeks
  Injury evaluation, scale 0-100%: 44%
Transgenic Soy plants [2]; Soy AtHPPD Event 2, 31.25 g/ha, two weeks
  Injury evaluation, scale 0-100%: 13%
Transgenic Soy plants [2]; Soy AtHPPD Event 2, 62.5 g/ha, two weeks
  Injury evaluation, scale 0-100%: 23%
Transgenic Soy plants [2]; Soy AtHPPD Event 2, 125 g/ha, two weeks
  Injury evaluation, scale 0-100%: 40%
Transgenic Soy plants [2]; Soy AtL385V, I393L Event 2, 31.25 g/ha, two weeks
  Injury evaluation, scale 0-100%: 20%
Transgenic Soy plants [2]; Soy AtL385V, I393L Event 2, 62.5 g/ha, two weeks
  Injury evaluation, scale 0-100%: 35%
Transgenic Soy plants [2]; Soy AtL385V, I393L Event 2, 125 g/ha, two weeks
  Injury evaluation, scale 0-100%: 38%
Transgenic Soy plants [2]; Soy AtM335H Event 1, 31.25 g/ha, two weeks
  Injury evaluation, scale 0-100%: 10%
Transgenic Soy plants [2]; Soy AtM335H Event 1, 62.5 g/ha, two weeks
  Injury evaluation, scale 0-100%: 21%
Transgenic Soy plants [2]; Soy AtM335H Event 1, 125 g/ha, two weeks
  Injury evaluation, scale 0-100%: 33%
Transgenic Soy plants [2]; Soy AtM335H Event 2, 31.25 g/ha, two weeks
  Injury evaluation, scale 0-100%: 14%
Transgenic Soy plants [2]; Soy AtM335H Event 2, 62.5 g/ha, two weeks
  Injury evaluation, scale 0-100%: 29%
Transgenic Soy plants [2]; Soy AtM335H Event 2, 125 g/ha, two weeks
  Injury evaluation, scale 0-100%: 31%
Transgenic Soy plants [2]; Soy AtM335Y, 31.25 g/ha, two weeks
  Injury evaluation, scale 0-100%: 9%
Transgenic Soy plants [2]; Soy AtM335Y, 62.5 g/ha, two weeks
  Injury evaluation, scale 0-100%: 45%
Transgenic Soy plants [2]; Soy AtM335Y, 125 g/ha, two weeks
  Injury evaluation, scale 0-100%: 46%
Transgenic Soy plants [2]; Soy AtP336A, E363Q, L385V, I393L, 31.25 g/ha, two weeks
  Injury evaluation, scale 0-100%: 30%
Transgenic Soy plants [2]; Soy AtP336A, E363Q, L385V, I393L, 62.5 g/ha, two weeks
  Injury evaluation, scale 0-100%: 30%
Transgenic Soy plants [2]; Soy AtP336A, E363Q, L385V, I393L, 125 g/ha, two weeks
  Injury evaluation, scale 0-100%: 50%
Transgenic Soy plants [2]; Soy GmHPPD1, 31.25 g/ha, two weeks
  Injury evaluation, scale 0-100%: 15%
Transgenic Soy plants [2]; Soy GmHPPD1, 62.5 g/ha, two weeks
  Injury evaluation, scale 0-100%: 29%
Transgenic Soy plants [2]; Soy GmHPPD1, 125 g/ha, two weeks
  Injury evaluation, scale 0-100%: 46%
Transgenic Soy plants [2]; Soy, transgene none, 31.25 g/ha, two weeks after treatment
  Injury evaluation, scale 0-100%: 49%
Transgenic Soy plants [2]; Soy, transgene none, 62.5 g/ha, two weeks after treatment
  Injury evaluation, scale 0-100%: 68%
Transgenic Soy plants [2]; Soy, transgene none, 125 g/ha, two weeks after treatment
  Injury evaluation, scale 0-100%: 79%
[3]
  Normalized tolerance index (TI): 0.1
